Measured values from patent publication US20240199587A1, “HETEROCYCLIC COMPOUNDS” (Hoffmann-La Roche Inc., priority 2021, published 2024).

target: T1, MAGL (Homo sapiens, UniProt Q99685); assay: 2-AG assay (MAGL inhibitory activity, hydrolysis of 2-arachidonoylglycerol to arachidonic acid followed by mass spectrometry); assay type: biochemical; conditions: 8 μM 2-arachidonoylglycerol, 15 min pre-incubation, 30 min incubation at RT, RapidFire MS readout
T1 sequence (Q99685 1-303): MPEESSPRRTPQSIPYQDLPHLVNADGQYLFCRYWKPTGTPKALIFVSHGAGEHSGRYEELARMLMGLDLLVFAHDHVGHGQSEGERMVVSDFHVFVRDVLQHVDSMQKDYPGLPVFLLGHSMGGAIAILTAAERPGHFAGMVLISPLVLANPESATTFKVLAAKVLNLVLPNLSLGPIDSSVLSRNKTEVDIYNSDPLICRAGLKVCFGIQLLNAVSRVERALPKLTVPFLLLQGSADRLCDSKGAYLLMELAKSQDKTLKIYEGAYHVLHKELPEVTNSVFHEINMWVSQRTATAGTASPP
Text: Compounds of formula (I) were profiled for MAGL inhibitory activity by determining the enzymatic activity by following the hydrolysis of the natural substrate 2-arachidonoylglycerol (2-AG) resulting in arachidonic acid, which can be followed by mass spectrometry. This assay is hereinafter abbreviated “2-AG assay”.
Compounds of formula (I) were profiled for MAGL inhibitory activity by determining the enzymatic activity by following the hydrolysis of the natural substrate 2-arachidonoylglycerol (2-AG) resulting in arachidonic acid, which can be followed by mass spectrometry. This assay is hereinafter abbreviated “2-AG assay”. The 2-AG assay was carried out in 384 well polypropylene assay plates. […] Compound dilutions were added to MAGL protein in assay buffer (50 mM TRIS, 1 mM EDTA, 0.01% (v/v) Tween-20, 2.5% (v/v) DMSO). After shaking, the plate was incubated for 15 min at RT. To start the reaction, 2-arachidonoylglycerol in assay buffer was added. The final concentrations in the assay was […] for MAGL protein and 8 μM 2-arachidonoylglyerol. After shaking and 30 min incubation at RT, the reaction was quenched by the addition of two assay volumes of acetonitrile containing 4 μM of d8-arachidonic acid. The amount of arachidonic acid formed was traced by an online SPE system (Agilent Rapidfire) coupled to a triple quadrupole mass spectrometer. A C18 SPE cartridge (Agilent G9205A) was used in an acetonitrile/water liquid setup. The mass spectrometer was operated in negative electrospray mode following the mass transitions 303.1→259.1 for arachidonic acid and 311.1→267.0 for d8-arachidonic acid. The activity of the compounds was calculated based on the ratio of intensities [arachidonic acid/d8-arachidonic acid].

SMILES | IC50
CC(C)(C)c1nc(-c2ccc(C(=O)N3CC4(CC(n5nccc5C5CC5)C4)C3)cc2)no1 [Example 180, [4-(5-tert-butyl-1,2,4-oxadiazol-3-yl)phenyl]-[6-(5-cyclopropylpyrazol-1-yl)-2-azaspiro[3.3]heptan-2-yl]methanone] | 4690 nM
O=C(N1CC2(CC(Oc3nccc(C(F)(F)F)n3)C2)C1)N1CC2(CC(n3cnc(C4CC4)n3)C2)C1 [Example 58, [6-(3-cyclopropyl-1,2,4-triazol-1-yl)-2-azaspiro[3.3]heptan-2-yl]-[6-[4-(trifluoromethyl)pyrimidin-2-yl]oxy-2-azaspiro[3.3]heptan-2-yl]methanone] | 2.6 nM
O=C(N1CC(c2ccc(-c3n[nH]c(C4CC4)n3)cc2)C1)N1CC2(CC(n3cnc(C4CC4)n3)C2)C1 [Example 467, [6-(3-cyclopropyl-1,2,4-triazol-1-yl)-2-azaspiro[3.3]heptan-2-yl]-[3-[4-(5-cyclopropyl-1H-1,2,4-triazol-3-yl)phenyl]azetidin-1-yl]methanone] | 2.36 nM
O=C(N1CC2(CC(n3cnc(C4CC4)n3)C2)C1)N1CC2(C1)CN(S(=O)(=O)c1cccc(C(F)(F)F)c1)C2 [Example 209, [6-(3-cyclopropyl-1,2,4-triazol-1-yl)-2-azaspiro[3.3]heptan-2-yl]-[2-[3-(trifluoromethyl)phenyl]sulfonyl-2,6-diazaspiro[3.3]heptan-6-yl]methanone] | 1.2 nM
O=C(O)c1ccc(S(=O)(=O)N2CC3(CN(C(=O)N4CC5(CC(n6cnc(C7CC7)n6)C5)C4)C3)C2)cc1 [Example 324] | 402 nM
CS(=O)(=O)c1ccc(CC2CC3(C2)CN(C(=O)N2CC4(CC(c5ccc(C(F)(F)F)nc5)C4)C2)C3)cc1C(F)(F)F [Example 532, [6-[[4-methylsulfonyl-3-(trifluoromethyl)phenyl]methyl]-2-azaspiro[3.3]heptan-2-yl]-[6-[6-(trifluoromethyl)-3-pyridyl]-2-azaspiro[3.3]heptan-2-yl]methanone] | 131 nM
O=C(N1CCC(NS(=O)(=O)c2ccc(C(F)(F)F)cc2)CC1)N1CC2(CC(n3cnc(C4CC4)n3)C2)C1 [Example 321, N-[1-[6-(3-cyclopropyl-1,2,4-triazol-1-yl)-2-azaspiro[3.3]heptane-2-carbonyl]-4-piperidyl]-4-(trifluoromethyl) benzenesulfonamide] | 331 nM
O=C(N1CC(c2ccc(N3CC[C@@](O)(C(F)(F)F)C3)nc2)C1)N1CC2(CC(n3cnc(C4CC4)n3)C2)C1 [Example 216] | 2 nM
NC(=O)c1ccccc1S(=O)(=O)N1CC2(CN(C(=O)N3CC4(CC(n5cnc(C6CC6)n5)C4)C3)C2)C1 [Example 323, 2-[[6-[6-(3-cyclopropyl-1,2,4-triazol-1-yl)-2-azaspiro[3.3]heptane-2-carbonyl]-2,6-diazaspiro[3.3]heptan-2-yl]sulfonyl]benzamide] | 365 nM
N=S(=O)(c1cccc(CC2CC3(C2)CN(C(=O)N2CC4(CC(n5cnc(C6CC6)n5)C4)C2)C3)c1)C(F)(F)F (stereo not drawn) [Example 447, [6-(3-cyclopropyl-1,2,4-triazol-1-yl)-2-azaspiro[3.3]heptan-2-yl]−[6-[[3-(trifluoromethylsulfonimidoyl)phenyl]methyl]-2-azaspiro[3.3]heptan-2-yl]methanone] | 0.02 nM
N#Cc1c(OC2CN(C(=O)N3CC4(CC(n5cnc(C6CC6)n5)C4)C3)C2)cccc1C1CC1 [Example 191, 2-cyclopropyl-6-[1-[6-(3-cyclopropyl-1,2,4-triazol-1-yl)-2-azaspiro[3.3]heptane-2-carbonyl]azetidin-3-yl]oxy-benzonitrile] | 0.2 nM
O=C(N1CC2(CC(Oc3ccnc(C(F)(F)F)n3)C2)C1)N1CC2(CC(n3cnc(C4CC4)n3)C2)C1 [Example 55, [6-(3-cyclopropyl-1,2,4-triazol-1-yl)-2-azaspiro[3.3]heptan-2-yl]−[6-[2-(trifluoromethyl)pyrimidin-4-yl]oxy-2-azaspiro[3.3]heptan-2-yl]methanone] | 1.8 nM
